ChEMBL document CHEMBL2434912, “Microwave accelerated synthesis of isoxazole hydrazide inhibitors of the system xc- transporter: Initial homology model” (Bioorg Med Chem Lett, 2013)

Molecular target: T1, Cystine/glutamate transporter (Homo sapiens) (UniProt Q9UPY5)
T1 sequence (whole entry): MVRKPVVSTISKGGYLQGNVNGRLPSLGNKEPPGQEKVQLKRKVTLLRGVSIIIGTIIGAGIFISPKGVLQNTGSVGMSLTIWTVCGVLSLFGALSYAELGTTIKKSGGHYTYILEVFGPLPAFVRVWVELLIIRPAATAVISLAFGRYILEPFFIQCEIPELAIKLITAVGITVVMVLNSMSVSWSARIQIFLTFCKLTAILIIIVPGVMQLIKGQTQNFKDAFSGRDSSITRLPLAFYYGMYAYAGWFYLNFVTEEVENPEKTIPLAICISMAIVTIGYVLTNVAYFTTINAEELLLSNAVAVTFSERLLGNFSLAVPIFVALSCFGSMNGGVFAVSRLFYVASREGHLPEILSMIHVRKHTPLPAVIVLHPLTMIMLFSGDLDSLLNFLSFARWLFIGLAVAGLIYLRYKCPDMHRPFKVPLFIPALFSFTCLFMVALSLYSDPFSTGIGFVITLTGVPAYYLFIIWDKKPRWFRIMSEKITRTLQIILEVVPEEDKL
Assay: Inhibition of system xc-transporter-mediated [3H]-L-glutamate uptake in human SNB19 cells at 500 uM after 5 mins by liquid scintillation counting analysis relative to control
Type: cell-based
Conditions: SNB-19

Row | SMILES | inhibition [%]
1 | C/C(=N\NC(=O)c1ccccc1O)c1c(C(=O)O)noc1C | 52
2 | C/C(=N\NC(=O)c1cc(C(F)(F)F)cc(C(F)(F)F)c1)c1c(C(=O)O)noc1C | 90
3 | C/C(=N\NC(=O)c1ccccc1)c1c(C(=O)O)noc1C | 83
4 | COc1ccc(C(=O)N/N=C(\C)c2c(C(=O)O)noc2C)cc1 | 68
5 | C/C(=N\NC(=O)c1cccc2ccccc12)c1c(C(=O)O)noc1C | 68
6 | C/C(=N\NC(=O)c1ccc(F)cc1F)c1c(C(=O)O)noc1C | 58
